Assays:
[1] = system: Leishmania donovani; assay: Antileishmanial activity against Leishmania donovani LV9 promastigotes after 72 hrs by MTT assay; type: functional, organism-based; details: LV9, 72 h
[2] = system: Trypanosoma brucei brucei; assay: Antitrypanosomal activity against Trypanosoma brucei brucei GVR 35 trypomastigotes after 72 hrs by MTT assay; type: functional, organism-based; details: GVR 35, 72 h

Row | Structure (SMILES) | IC50 [1] [µM] | IC50 [2] [µM]
1 | CC(=O)OC[C@H]1O[C@@H](n2cc(C3SCC(=O)N3c3cccc([N+](=O)[O-])c3)c(=O)[nH]c2=O)C[C@@H]1OC(C)=O (some centres undefined) | > 100 | > 100
2 | CC(=O)OC[C@H]1O[C@@H](n2cc(C3SCC(=O)N3c3ccccc3)c(=O)[nH]c2=O)C[C@@H]1OC(C)=O (some centres undefined) | 50 | > 100
3 | CC(=O)OC[C@H]1O[C@@H](n2cc(C3SCC(=O)N3c3ccc(F)cc3)c(=O)[nH]c2=O)C[C@@H]1OC(C)=O (some centres undefined) | 50 | > 100
4 | CC(=O)OC[C@H]1O[C@@H](n2cc(C3SCC(=O)N3c3ccccn3)c(=O)[nH]c2=O)C[C@@H]1OC(C)=O (some centres undefined) | > 100 | > 100
5 | CC(=O)OC[C@H]1O[C@@H](n2cc(C3SCC(=O)N3c3ccc(C)cc3)c(=O)[nH]c2=O)C[C@@H]1OC(C)=O (some centres undefined) | 100 | > 100
6 | CC(=O)OC[C@H]1O[C@@H](n2cc(C3SCC(=O)N3c3ccc(Cl)cc3)c(=O)[nH]c2=O)C[C@@H]1OC(C)=O (some centres undefined) | 25 | > 100
7 | CC(=O)OC[C@H]1O[C@@H](n2cc(C3SCC(=O)N3c3cccc(Br)n3)c(=O)[nH]c2=O)C[C@@H]1OC(C)=O (some centres undefined) | 50 | > 100

From ChEMBL document CHEMBL1156103, “Ionic liquid mediated and promoted eco-friendly preparation of thiazolidinone and pyrimidine nucleoside-thiazolidinone hybrids and their antiparasitic activities” (Bioorg Med Chem Lett, 2009)
